“Also recorded” adds a separate entry of the source.
Legend:
[1] = molecular target: T1, glucocorticoid receptor (Homo sapiens, UniProt P04150); test: Transrepression assay using artificially expressed glucocorticoid receptor and P65 in the COS 7 cell line (NRE luciferase); type: cell-based; set-up: expressed in transfected cells; host or cells: COS 7 (African green monkey kidney, deficient in endogenous GR); settings: 1, 10 and 100 nM
T1 sequence (P04150 1-777): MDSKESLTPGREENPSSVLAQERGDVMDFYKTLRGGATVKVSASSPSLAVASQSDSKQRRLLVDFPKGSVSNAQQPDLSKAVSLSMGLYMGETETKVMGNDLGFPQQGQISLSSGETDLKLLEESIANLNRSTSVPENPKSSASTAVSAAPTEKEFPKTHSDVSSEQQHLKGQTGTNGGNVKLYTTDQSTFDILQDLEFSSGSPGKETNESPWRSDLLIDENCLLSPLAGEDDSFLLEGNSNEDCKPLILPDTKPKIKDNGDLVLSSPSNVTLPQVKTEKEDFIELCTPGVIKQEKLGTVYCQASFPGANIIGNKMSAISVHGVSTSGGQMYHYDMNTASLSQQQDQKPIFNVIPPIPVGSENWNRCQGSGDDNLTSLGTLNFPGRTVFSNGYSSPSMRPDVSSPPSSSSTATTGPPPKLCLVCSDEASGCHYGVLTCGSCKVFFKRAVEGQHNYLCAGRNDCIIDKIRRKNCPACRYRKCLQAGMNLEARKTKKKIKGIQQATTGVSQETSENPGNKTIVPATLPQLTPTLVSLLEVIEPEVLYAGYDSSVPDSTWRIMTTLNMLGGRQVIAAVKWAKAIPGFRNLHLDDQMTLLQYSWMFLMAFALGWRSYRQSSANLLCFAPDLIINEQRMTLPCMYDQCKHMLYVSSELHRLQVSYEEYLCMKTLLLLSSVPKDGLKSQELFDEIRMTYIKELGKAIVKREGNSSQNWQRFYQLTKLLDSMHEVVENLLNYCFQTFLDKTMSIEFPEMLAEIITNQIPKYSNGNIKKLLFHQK
Method: (§1) All transfections were performed using lipofectamine plus (Gibco BRL), according to the manufacturers' instructions, as previously described^1. Briefly, all cells were seeded at 5×10^5 per 10 cm tissue culture plate 18 hours before transfection, the next day the relevant plasmids were mixed with serum free medium and “Plus” reagent (Gibco BRL) and incubated for 15 mins, lipofectamine reagent was added and the mix was incubated for a further 15 mins, this mix was added to the cells on serum free medium in the 10 cm tissue culture plates and left for 3 hours, the cells were then trypsinised and divided into 24 well plates, the cells were left to recover overnight and were treated with steroid for 16 hours before harvest. All experiments were performed from one transfection in triplicate and on separate occasions with similar results.
(§2) The firefly luciferase gene catalyses the production of light from the substrate luciferin. When plasmid constructs containing this gene are transfected into cell lines the activity of the gene can be assessed by the intensity of the luminesence. The luciferase assay yields luminescence through an ATP-dependent oxidation of luciferin the amount of light produced can be measured by a luminometer and is a measure of gene activity (Davis, 1996). Light intensity was measured in a Luminometer (LB 9501, Berthold). The light intensity should be proportional to luciferase concentration in the range of 10^−16M (10 μg/L) to 10^−8M (1 mg/L). To measure the luminescence of the treated cells 150 μl of 1× reporter lysis buffer (RLB: 25 mM Tris phosphate pH7.8, 10 mM MgCl2, 15% Glycerol, 1% Triton, 1 mM EDTA) was added to the 24 well plates to lyse the cells and incubated at room temperature for 30 mins whilst being shaken. Then 100 μl of the room temperature cell extract were mixed with 100 μl of room temperature Luciferase Assay Reagent (LAR: 1 mM ATP, 0.3 mM D-Luciferin, 66% RLB). This reaction was mixed in a luminometer (LB 9501, Berthold) and the light produced was measured for a period of 5 seconds.
To perform this assay the GR and p65 were artificially expressed in a cell line lacking GR and deficient in endogenous P65. The ability of P65 to activate an NFkB response element (NRE) “driving” a luciferase reporter gene could then be repressed by GR in a ligand dependent manner and, therefore, used to measure transrepression.
COS7 cells were transfected with 1 μg pcDNA3-GR and 3 μg NRE-Luc and 200 ng p65 per 10 cm tissue culture dish. The cells were plated out in to 24 well plates after transfection and left for 18 hours to recover before the steroids of FIGS. 1 and 2A were added. After another 18 hour incubation the cells were lysed and a luciferase assay was performed.

[2] = tested on: IL-8; test: Repression of endogenous IL-8 in A549s; type: cell-based, human; settings: A549 cells; compound G at 100 nM, p=0.0076
Text: The A549 cell line (ECACC:86012804) is derived from the human lung epithelial cells from a carcinoma. This cell line contains functional endogenous GR and is stimulated by Tumour Necrosis Factor (TNF) to produce IL-8.
In this assay TNF was used to stimulate NFkB activity in a cell line that expressed endogenous GR. The ability of NFkB to induce IL-8 gene transcription could then be repressed by GR in a ligand dependent manner and, therefore, used to measure transrepression.
COS7 cells were transfected with 3 μg NRE-Luc per 10 cm tissue culture dish. The cells were plated out in to 24 well plates after transfection and left for 18 hours to recover before the steroids of FIGS. 1 and 2A were added. After incubation for 3 hours with the steroids, TNF was added to the samples and after another 15 hours an IL-8 assay (R&D systems) was performed on the cell supernatants according to the manufacturers instructions. Briefly, triplicates of 100 μl of a 1:2 dilution of cell supernatant and 100 μl of a known dilution series of IL-8 were added to the wells of a microtitre plate coated with a monoclonal IL-8 antibody, the samples were incubated with a polyclonal biotinylated IL-8 antibody for 1 hour at room temperature and washed. Streptavidin horse radish peroxidase solution was then added to all wells and incubated for 30 mins before being washed. Tetramethyl benzidine (TMB; a chromagen) was added to all the wells and incubated in the dark for 10 mins, the reaction was stopped by the addition of H2SO4 and the absorbance of each well was read on a spectrophotometer using 450 nm as the primary wavelength. Regression analysis was performed on the standard data and the unknowns were expressed as pg/ml of IL-8 in comparison to the standards.

[3] = molecular target: T1, glucocorticoid receptor; test: Transactivation assay using artificially expressed glucocorticoid receptor in the COS 7 monkey kidney cell line (GRE luciferase); type: cell-based; set-up: expressed in transfected cells; host or cells: COS 7 (African green monkey kidney, deficient in endogenous GR); settings: for ability to transactivate (luminescence) compared to dexamethasone: 1, 10 and 100 nM, FIGS. 3 and 4; for transactivation potential (luminescence) compared to dexamethasone, repeat experiment: 1, 10, 10 and 500 nM, FIG. 5
Method: as §1, §2
In this assay the GR was artificially expressed in a cell line lacking endogenous GR and a glucocorticoid response element (GRE) “driving” a luciferase reporter gene was used to measure ligand dependent activation.
COS7 cells were transfected with 1 μg pcDNA3-GR and 3 μg AH3-Luc per 10 cm tissue culture dish. The cells were plated out in to 24 well plates after transfection and the steroids were added immediately. After 18 hour incubation the cells were lysed and a luciferase assay was performed.

Structure (SMILES) | repression of P65 stimulation of an NFkB response element compared with dexamethasone [1] | repression of IL-8 production after TNF activation [2] | ability to transactivate (luminescence) compared to dexamethasone [3] | transactivation potential (luminescence) compared to dexamethasone, repeat experiment [3]
CC1CC2C3CCC4=CC(=O)C=CC4(C)C3(F)C(O)CC2(C)C12OC(C)(C)OCC2=O (stereo not shown) [Compound A] | less potent than dexamethasone but produced the same maximal response at 100 nM | exhibited transrepression |  | 
Cc1ccc(NC(=O)C2(O)C(C)CC3C4CCC5=CC(=O)C=CC5(C)C4(F)C(O)CC32C)cc1 (stereo not shown) [Compound O] | failed completely to repress P65 function |  | failed to generate a response at any concentration | 
CC1CC2C3CCC4=CC(=O)C=CC4(C)C3(F)C(O)CC2(C)C1(O)C(=O)NCCCO (stereo not shown) [L] | failed completely to repress P65 function |  | failed to generate a response at any concentration | 
CCCNC(=O)C1(O)C(C)CC2C3CCC4=CC(=O)C=CC4(C)C3(F)C(O)CC21C (stereo not shown) [Compound G] | “left shifted” response and greater maximal repression | repressed IL-8 production better than dexamethasone | much less potent and had a lower maximal effect when compared to dexamethasone | “right shifted response” and a reduced maximum compared to dexamethasone; also recorded: lowest overall maximal response
CC1CC2C3CCC4=CC(=O)C=CC4(C)C3(F)C(O)CC2(C)C1(O)C(=O)COC(=O)c1ccc(F)cc1 (stereo not shown) [Compound D] | as potent as dexamethasone | exhibited transrepression | more active in causing transactivation than dexamethasone | 
CCCOC(=O)C1(O)C(C)CC2C3CCC4=CC(=O)C=CC4(C)C3(F)C(O)CC21C (stereo not shown) [R] | failed completely to repress P65 function |  | failed to generate a response at any concentration | 
CCCCCCNC(=O)OCC(=O)C1(O)C(C)CC2C3CCC4=CC(=O)C=CC4(C)C3(F)C(O)CC21C (stereo not shown) [Compound T] | “left shifted” response and greater maximal repression |  |  | “right shifted response” and a reduced maximum compared to dexamethasone
CC1CC2C3CCC4=CC(=O)C=CC4(C)C3(F)C(O)CC2(C)C1(O)C(=O)NCCC(=O)O (stereo not shown) [Q] | no effect at 1 and 10 nM with only a negligible repression at 100 nM |  | failed to generate a response at any concentration | 
